Where a name gives a salt, the structure may show the parent alone.
Assays:
[1] = tested on: Sprague-Dawley rats; test: rat cold ethanol tail-flick test (analgesic effect); type: in vivo; conditions: intramuscular, 25 μM/kg, FIG. 5
[2] = pharmacokinetics of nalbuphine in rat plasma after intramuscular injection; conditions: for k01: hydrochloride
Description: Each group consisted of 6 rats and each rat was injected once intramuscularly on the rear leg.

[3] = pharmacokinetics of nalbuphine in beagle plasma after intramuscular injection; conditions: for k01: hydrochloride
[4] = Shafer et al. 1991; cited from earlier work
[5] = male, Sprague-Dawley, rat, plasma, im, 24 mg/kg
[6] = beagle, dog, plasma, im, 5 mg/kg
[7] = beagles, i.m., dose 5 mg/kg, n = 5, mean ± S.E.

Oc1ccc2c3c1O[C@H]1[C@@H](O)CC[C@@]4(O)[C@@H](C2)N(CC2CCC2)CC[C@]314 [Nalbuphine-HCl, nalbuphine hydrochloride]
10% analgesic effect (duration) [1]: 2.7 h | 50% analgesic effect (duration) [1]: 1.2 h | β or k10 ([2]; Sprague-Dawley rats, i.m., 24 mg/kg (FIG. 7), means ± S.E.): 0.43 ± 0.21 h⁻¹ | k01 ([2]; Sprague-Dawley rats, i.m., 24 mg/kg (FIG. 7), means ± S.E., 24 mg/kg): 12.1 ± 14.1 h⁻¹ | k01 ([2]; Sprague-Dawley rats, i.m., 24 mg/kg (FIG. 7), means ± S.E., listed as nalbuphine hydrochloride, 24 mg/kg): 12.1 ± 14.1 h⁻¹ | AUC [2, 5]: 8040 ± 2880 ng·h/mL | CL/F [2, 5]: 58.3 mL/min/kg | Cmax [2, 5]: 2230 ± 669 ng/mL | MRT [2, 5]: 3 ± 1.2 h | Tmax [2, 5]: 27 ± 14.4 min | half-life ([2]; male, Sprague-Dawley, rat, plasma, im, 24 mg/kg, t1/2, k01, Sprague-Dawley rats, 24 mg/kg (FIG. 7), means ± S.E.): 8.4 ± 9 min | half-life ([2]; male, Sprague-Dawley, rat, plasma, im, 24 mg/kg, t1/2, β (elimination half-life), Sprague-Dawley rats, 24 mg/kg (FIG. 7), means ± S.E.): 114 ± 48 min | AUC [3, 6]: 1870 ± 203 ng·h/mL | CL/F [3, 6]: 46.7 mL/min/kg | Cmax [3, 6]: 2460 ± 755 ng/mL | MRT [3, 6]: 2.2 ± 0.5 h | Tmax [3, 6]: 5.4 ± 2.4 min | half-life ([3]; beagle, dog, plasma, im, 5 mg/kg, t1/2, k01, beagles, n = 5, mean ± S.E.): 7.2 ± 4.2 min | half-life ([3]; beagle, dog, plasma, im, 5 mg/kg, t1/2, α, beagles, n = 5, mean ± S.E.): 7.8 ± 6.6 min | half-life ([3]; beagle, dog, plasma, im, 5 mg/kg, t1/2, β (elimination half-life), beagles, n = 5, mean ± S.E.): 168 ± 54 min | α [3, 7]: 67.9 ± 29.3 h⁻¹ | β [3, 7]: 0.42 ± 0.15 h⁻¹ | k01 ([3]; beagles, i.m., dose 5 mg/kg, n = 5, mean ± S.E., listed as Nal-HCl): 82.5 ± 43.9 h⁻¹ | k01 ([3]; beagles, i.m., dose 5 mg/kg, n = 5, mean ± S.E., listed as Nalbuphine HCl): 82.5 ± 43.9 h⁻¹ | k01 ([3]; beagles, i.m., dose 5 mg/kg, n = 5, mean ± S.E., listed as nalbuphine hydrochloride): 82.5 h⁻¹

Oc1ccc2c(c1)[C@@]13CCCC[C@@]1(O)[C@@H](C2)N(CC1CCC1)CC3 [butorphanol]
dose needed to elicit the same analgesic effect [4]: 2 mg

CN1CC[C@]23c4c5ccc(O)c4O[C@H]2[C@@H](O)C=C[C@H]3[C@H]1C5 [morphine]
dose needed to elicit the same analgesic effect [4]: 10 mg

— patent US6680067B2 (priority 2001, dated 2004)
